Test results: PubChem BioAssay AID1918933 (Molecular Pharmacology Branch, DTP, NCI, 2023)

Test system: 186277-243-T-J2-PDC complex spheroid viability
Experiment: Anticancer human tumor 186277-243-T-J2-PDC patient-derived colon adenocarcinoma cell line growth inhibition
Settings: for IC50: curve of first compound; for viability, T/C: stronger effect = lower value
In short: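 Drug combinations with the LSD1 inhibitor iadademstat tested on tumor cells co-cultured as spheroids with endothelial cells and mesenchymal stem cells. Concentrations descended in half-log increments from clinical Cmax or 10 microM.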

[1] = second compound 0.1 µM, first compound 0.00949 µM
[2] = second compound 0.1 µM, first compound 0.03 µM
[3] = second compound 0.1 µM, first compound 0.0949 µM
[4] = second compound 0.1 µM, first compound 0.3 µM
[5] = second compound 0.316 µM, first compound 0.00949 µM
[6] = second compound 0.316 µM, first compound 0.03 µM
[7] = second compound 0.316 µM, first compound 0.0949 µM
[8] = second compound 0.316 µM, first compound 0.3 µM
[9] = second compound 1 µM, first compound 0.00949 µM
[10] = second compound 1 µM, first compound 0.03 µM
[11] = second compound 1 µM, first compound 0.0949 µM
[12] = second compound 1 µM, first compound 0.3 µM
[13] = second compound 3.16 µM, first compound 0.00949 µM
[14] = second compound 3.16 µM, first compound 0.03 µM
[15] = second compound 3.16 µM, first compound 0.0949 µM
[16] = second compound 3.16 µM, first compound 0.3 µM
[17] = second compound 10 µM, first compound 0.00949 µM
[18] = second compound 10 µM, first compound 0.03 µM
[19] = second compound 10 µM, first compound 0.0949 µM
[20] = second compound 10 µM, first compound 0.3 µM
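Note: 7 day exposure to compounds.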
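Throughout, for viability, T/C: 100% = DMSO vehicle control viability.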

Nc1ccccc1NC(=O)c1ccc(CNC(=O)OCc2cccnc2)cc1 + NC1CCC(NC2CC2c2ccccc2)CC1
IC50 (second compound 0.1 µM): 1.41 µM
IC50 (second compound 0.316 µM): 1.4 µM
IC50 (second compound 1 µM): 1.52 µM
IC50 (second compound 3.16 µM): 1.38 µM
IC50 (second compound 10 µM): 1.39 µM
viability, T/C [1]: 112%
viability, T/C [2]: 96.2%
viability, T/C [3]: 95.3%
viability, T/C [4]: 110%
viability, T/C (second compound 0.1 µM, first compound 0.949 µM): 69.6%
viability, T/C (second compound 0.1 µM, first compound 3 µM): 12.5%
viability, T/C [5]: 112%
viability, T/C [6]: 113%
viability, T/C [7]: 109%
viability, T/C [8]: 96.5%
viability, T/C (second compound 0.316 µM, first compound 0.949 µM): 68.7%
viability, T/C (second compound 0.316 µM, first compound 3 µM): 13.5%
viability, T/C [9]: 112%
viability, T/C [10]: 113%
viability, T/C [11]: 92.8%
viability, T/C [12]: 107%
viability, T/C (second compound 1 µM, first compound 0.949 µM): 74.9%
viability, T/C (second compound 1 µM, first compound 3 µM): 13.7%
viability, T/C [13]: 118%
viability, T/C [14]: 113%
viability, T/C [15]: 106%
viability, T/C [16]: 108%
viability, T/C (second compound 3.16 µM, first compound 0.949 µM): 67.6%
viability, T/C (second compound 3.16 µM, first compound 3 µM): 12.8%
viability, T/C [17]: 106%
viability, T/C [18]: 98.7%
viability, T/C [19]: 103%
viability, T/C [20]: 93.4%
viability, T/C (second compound 10 µM, first compound 0.949 µM): 71.1%
viability, T/C (second compound 10 µM, first compound 3 µM): 8.04%

Nc1ccn(C2OC(CO)C(O)C2(F)F)c(=O)n1 (stereo not given) + NC1CCC(NC2CC2c2ccccc2)CC1
IC50 (second compound 0.1 µM): < 0.000949 µM
IC50 (second compound 0.316 µM): < 0.000949 µM
IC50 (second compound 1 µM): < 0.000949 µM
IC50 (second compound 3.16 µM): < 0.000949 µM
IC50 (second compound 10 µM): < 0.000949 µM
viability, T/C (second compound 0.1 µM, first compound 0.000949 µM): 25.8%
viability, T/C (second compound 0.1 µM, first compound 0.003 µM): 17.1%
viability, T/C [1]: 16.5%
viability, T/C [2]: 15.9%
viability, T/C [3]: 15.9%
viability, T/C [4]: 15.1%
viability, T/C (second compound 0.316 µM, first compound 0.000949 µM): 22.9%
viability, T/C (second compound 0.316 µM, first compound 0.003 µM): 18.7%
viability, T/C [5]: 16.2%
viability, T/C [6]: 15.6%
viability, T/C [7]: 16.1%
viability, T/C [8]: 15.6%
viability, T/C (second compound 1 µM, first compound 0.000949 µM): 26%
viability, T/C (second compound 1 µM, first compound 0.003 µM): 18.6%
viability, T/C [9]: 18.1%
viability, T/C [10]: 18%
viability, T/C [11]: 16.8%
viability, T/C [12]: 16.3%
viability, T/C (second compound 3.16 µM, first compound 0.000949 µM): 27.2%
viability, T/C (second compound 3.16 µM, first compound 0.003 µM): 20.5%
viability, T/C [13]: 20.1%
viability, T/C [14]: 19.6%
viability, T/C [15]: 19.2%
viability, T/C [16]: 15.9%
viability, T/C (second compound 10 µM, first compound 0.000949 µM): 31.3%
viability, T/C (second compound 10 µM, first compound 0.003 µM): 25.1%
viability, T/C [17]: 25.3%
viability, T/C [18]: 18.5%
viability, T/C [19]: 23.3%
viability, T/C [20]: 20.9%

O=C(c1cc(Cc2n[nH]c(=O)c3ccccc23)ccc1F)N1CCN(C(=O)C2CC2)CC1 + NC1CCC(NC2CC2c2ccccc2)CC1
IC50 (second compound 0.1 µM): > 10 µM
IC50 (second compound 0.316 µM): > 10 µM
IC50 (second compound 1 µM): > 10 µM
IC50 (second compound 3.16 µM): > 10 µM
IC50 (second compound 10 µM): > 10 µM
viability, T/C (second compound 0.1 µM, first compound 0.0316 µM): 121%
viability, T/C (second compound 0.1 µM, first compound 0.1 µM): 121%
viability, T/C (second compound 0.1 µM, first compound 0.316 µM): 117%
viability, T/C (second compound 0.1 µM, first compound 1 µM): 123%
viability, T/C (second compound 0.1 µM, first compound 3.16 µM): 121%
viability, T/C (second compound 0.1 µM, first compound 10 µM): 94%
viability, T/C (second compound 0.316 µM, first compound 0.0316 µM): 119%
viability, T/C (second compound 0.316 µM, first compound 0.1 µM): 114%
viability, T/C (second compound 0.316 µM, first compound 0.316 µM): 117%
viability, T/C (second compound 0.316 µM, first compound 1 µM): 113%
viability, T/C (second compound 0.316 µM, first compound 3.16 µM): 127%
viability, T/C (second compound 0.316 µM, first compound 10 µM): 84.1%
viability, T/C (second compound 1 µM, first compound 0.0316 µM): 111%
viability, T/C (second compound 1 µM, first compound 0.1 µM): 112%
viability, T/C (second compound 1 µM, first compound 0.316 µM): 122%
viability, T/C (second compound 1 µM, first compound 1 µM): 123%
viability, T/C (second compound 1 µM, first compound 3.16 µM): 121%
viability, T/C (second compound 1 µM, first compound 10 µM): 79.1%
viability, T/C (second compound 3.16 µM, first compound 0.0316 µM): 120%
viability, T/C (second compound 3.16 µM, first compound 0.1 µM): 120%
viability, T/C (second compound 3.16 µM, first compound 0.316 µM): 119%
viability, T/C (second compound 3.16 µM, first compound 1 µM): 132%
viability, T/C (second compound 3.16 µM, first compound 3.16 µM): 124%
viability, T/C (second compound 3.16 µM, first compound 10 µM): 80.5%
viability, T/C (second compound 10 µM, first compound 0.0316 µM): 111%
viability, T/C (second compound 10 µM, first compound 0.1 µM): 109%
viability, T/C (second compound 10 µM, first compound 0.316 µM): 114%
viability, T/C (second compound 10 µM, first compound 1 µM): 134%
viability, T/C (second compound 10 µM, first compound 3.16 µM): 109%
viability, T/C (second compound 10 µM, first compound 10 µM): 69.9%
